# Measured values reported in patent US9115151B2, “Substituted 2,10-dihydro-9-oxa-1,2,4A-triazaphenanthren-3-ones and uses thereof” (AbbVie Inc., priority 2012, dated 2015).
# Where a name gives a salt, the structure may show the parent alone. Read-outs that look alike come from different tables or passages of the source.
# Columns and labels:
# PKCα = target: T1, PKCα (Homo sapiens, UniProt P17252); test: In vitro enzyme assay (time-resolved fluorescence kinase assay), PKCα, 100 μM ATP; type: biochemical
# T1 construct: His6; purchased Millipore; host or cells: baculovirus in Sf21 cells
# Method: (§1) PKC kinase activity was assayed by time-resolved fluorescence in vitro kinase assay. Unless otherwise indicated, all reagents used for enzyme assays were obtained from Sigma. Specifically, 5 μL N- or C-terminal His6-tagged, recombinant, human PKC, expressed by baculovirus in Sf21 cells (Millipore) was mixed with 5 μL inhibitor (various concentrations, 5% final DMSO), 5 μL Bio-cdc peptide (Biotin-Ahx-[…], 2 μM final concentration, New England Peptide) and 5 μL of ATP (100 μM or 1000 μM final concentration) in 1× reaction buffer, 20 μL final volume.
# (§2) Following a sixty minute incubation at room temperature, the reaction was quenched with 5 μL of 0.5 M EDTA pH 7.5.
# (§3) Background counts from a minus enzyme control is subtracted from all data. Data (after background correction) are converted to percent activity by dividing by the signal obtained from PKC without drug sample.
# [1] = system: CD3/CD28 induced IL-2 in human T-Blasts; test: T-Blasts CD3/CD28 induced IL-2 assay; type: cell-based; conditions: read-out: CD3/CD28-stimulated IL2 in T-blasts EC50
# Method: T-Blasts CD3/CD28 Induced IL-2 Assay
# Human T-Blasts are generated using PHA following standard protocols. T-Blasts are freeze aliquoted and vials thawed as required. […] Seed 2×10^5/100 μL cell suspension per well in flat bottomed 96 well plate. Compound dilutions are prepared from 100% DMSO stocks. A total of 8 serial dilutions are made (1/3 in 100% DMSO). Compounds are diluted 1/50 in growth medium to prepare 4× stocks of each tested concentration. 50 μL from each 4× stock concentration is added to the 100 μL cell suspension and incubated for 30 minutes prior stimulus addition. A 4× stimulus stock is prepared using anti-CD3+anti-CD28 antibodies. Antibody mix is added to the cell/compounds suspension in 50 μL at 5 μg/mL final concentration. Compounds are tested in duplicates. Plates are transferred to 37° C./CO2 incubator for 24 hours. After incubation 130 μL of supernatant is collected for IL-2 determination while MTT toxicity analysis is performed on remaining cells/medium.
# PKCθ = target: T2, PKCθ (Homo sapiens, UniProt Q04759); test: In vitro enzyme assay (time-resolved fluorescence kinase assay), PKCθ, 100 μM ATP; type: biochemical
# T2 construct: His6; purchased Millipore; host or cells: baculovirus in Sf21 cells
# Method: as §1, §2, §3
# [2] = 100 μM ATP, read-out: PKCα enzyme IC50
# T2 sequence (Q04759 whole entry): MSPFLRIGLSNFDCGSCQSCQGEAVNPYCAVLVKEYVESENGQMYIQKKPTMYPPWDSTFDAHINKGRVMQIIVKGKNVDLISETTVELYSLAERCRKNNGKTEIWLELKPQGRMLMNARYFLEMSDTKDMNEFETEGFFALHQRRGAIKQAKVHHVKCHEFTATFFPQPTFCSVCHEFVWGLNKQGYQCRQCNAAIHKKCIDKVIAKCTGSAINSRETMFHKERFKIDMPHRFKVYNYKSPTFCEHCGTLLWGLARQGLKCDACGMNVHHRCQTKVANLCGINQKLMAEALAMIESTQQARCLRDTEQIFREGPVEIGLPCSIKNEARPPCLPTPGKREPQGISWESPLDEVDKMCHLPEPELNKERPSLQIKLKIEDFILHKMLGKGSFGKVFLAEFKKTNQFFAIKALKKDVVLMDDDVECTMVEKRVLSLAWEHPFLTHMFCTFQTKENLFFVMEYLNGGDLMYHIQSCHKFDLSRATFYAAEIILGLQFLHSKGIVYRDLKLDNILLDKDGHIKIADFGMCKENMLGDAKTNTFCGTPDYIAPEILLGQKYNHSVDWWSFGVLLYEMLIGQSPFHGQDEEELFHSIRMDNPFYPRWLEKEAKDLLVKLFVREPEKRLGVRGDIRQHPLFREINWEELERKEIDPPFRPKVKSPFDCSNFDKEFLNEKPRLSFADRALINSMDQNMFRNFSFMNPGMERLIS
Compound,IC50 (PKCα; [2]),EC50 [1],IC50 (PKCθ),IC50 (PKCα)
CC1C(=O)NN=C2COc3cc(-c4ccc(OC(F)(F)F)cc4)c(NC4CNC4)cc3N21 (racemic) [Example 21],1000 to 10000 nM,< 250 nM,250 to 1000 nM,–
"CC(C)c1cc2c(cc1OC1(C)CNC1)N1C(=NNC(=O)C1C)CO2 (stereo not drawn) [Example 82, 7-Isopropyl-4-methyl-6-(3-methyl-azetidin-3-yloxy)-2,10-dihydro-9-oxa-1,2,4a-triaza-phenanthren-3-one trifluoroacetic acid]",250 to 1000 nM,< 250 nM,< 250 nM,–
C[C@@H]1C(=O)NN=C2COc3cc(-c4ccccc4F)c(N(C)C4(C)CN(CC(C)(C)O)C4)cc3N21 [Example 190],250 to 1000 nM,< 250 nM,< 250 nM,–
C[C@@H]1CN(C)CC[C@@H]1c1cc2c(cc1-c1ccccc1CO)OCC1=NNC(=O)[C@@H](C)N12 [Example 205],250 to 1000 nM,< 250 nM,< 250 nM,–
COc1ccc(F)c(-c2cc3c(cc2[C@@H]2CCN(C)C[C@@H]2C)N2C(=NNC(=O)[C@H]2C)CO3)c1 [Example 241],–,< 250 nM,< 250 nM,–
Cc1cc(F)ccc1-c1cc2c(cc1NC1CNC1)N1C(=NNC(=O)C1C)CO2 (racemic) [Example 13],1000 to 10000 nM,< 250 nM,< 250 nM,–
C[C@@H]1C(=O)NN=C2COc3cc(-c4ccccc4F)c(N(C)C4(C)CN(C(=O)C(F)(F)F)C4)cc3N21 [Example 186],1000 to 10000 nM,250 to 1000 nM,250 to 1000 nM,–
C[C@@H]1C(=O)NN=C2COc3cc(-c4ccccc4F)c([C@@H]4CCN(CCO)C[C@@H]4C)cc3N21 [Example 206],1000 to 10000 nM,< 250 nM,< 250 nM,–
C[C@@H]1C(=O)NN=C2COc3cc(-c4ccccc4F)c(N(C)C4(C)CN(C(=O)CO)C4)cc3N21 [Example 184],1000 to 10000 nM,250 to 1000 nM,< 250 nM,–
C[C@@H]1C(=O)NN=C2COc3cc(-c4ccccc4CO)c(N(C)C4(C)CN(C)C4)cc3N21 [Example 176],250 to 1000 nM,< 250 nM,< 250 nM,–
"CC1C(=O)NN=C2COc3cc(Br)c(NC4CNC4)cc3N21 (stereo not drawn) [Example 85, 6-(Azetidin-3-ylamino)-7-bromo-4-methyl-2,10-dihydro-9-oxa-1,2,4a-triaza-phenanthren-3-one trifluoroacetic acid]",1000 to 10000 nM,250 to 1000 nM,< 250 nM,–
"Cc1cc2c(cc1OC1(C)CNC1)N1C(=NNC(=O)C1C)CO2 (stereo not drawn) [Example 83, 4,7-Dimethyl-6-(3-methyl-azetidin-3-yloxy)-2,10-dihydro-9-oxa-1,2,4a-triaza-phenanthren-3-one trifluoroacetic acid]",1000 to 10000 nM,< 250 nM,< 250 nM,–
"CC1C(=O)NN=C2COc3cc(Oc4ccccc4)c(NC4CNC4)cc3N21 (stereo not drawn) [Example 106, 6-(Azetidin-3-ylamino)-4-methyl-7-phenoxy-2,10-dihydro-9-oxa-1,2,4a-triaza-phenanthren-3-one trifluoroacetic acid]",1000 to 10000 nM,250 to 1000 nM,< 250 nM,–
"CC(C)c1cc2c(cc1[C@@H](C)C1(C)CN(C)C1)N1C(=NNC(=O)[C@H]1C)CO2 [Example 134, (R)-6-[(R)-1-(1,3-Dimethyl-azetidin-3-yl)-ethyl]-7-isopropyl-4-methyl-2,10-dihydro-9-oxa-1,2,4a-triaza-phenanthren-3-one]",1000 to 10000 nM,250 to 1000 nM,< 250 nM,–
Cc1cccc(-c2cc3c(cc2N(C)C2(C)CN(C)C2)N2C(=NNC(=O)C2C)CO3)c1 (stereo not drawn) [Example 172],250 to 1000 nM,< 250 nM,< 250 nM,–
"C[C@@H]1C(=O)NN=C2COc3cc(-c4c(F)cccc4F)c([C@@H]4CCN(C)C[C@@H]4C)cc3N21 [Example 245, (R)-7-(2,6-Difluoro-phenyl)-6-((3R,4R)-1,3-dimethyl-piperidin-4-yl)-4-methyl-2,10-dihydro-9-oxa-1,2,4a-triaza-phenanthren-3-one]",250 to 1000 nM,< 250 nM,–,–
"C[C@H]1C(=O)NN=C2COc3cc(C(F)(F)F)c(NC4CNC4)cc3N21 (single isomer, unassigned) [Example 53-1, trifluoroacetic acid]",1000 to 10000 nM,250 to 1000 nM,–,–
"C[C@@H]1C(=O)NN=C2COc3cc(C(F)(F)F)c([C@H](C)C4(C)CNC4)cc3N21 (single isomer, unassigned) [Example 147-2, trifluoroacetic acid]",1000 to 10000 nM,–,1000 to 10000 nM,–
"COc1cccc(-c2cc3c(cc2[C@@H]2CCN(C)C[C@@H]2C)N2C(=NNC(=O)[C@H]2C)CO3)c1F [Example 237, (R)-6-((3R,4R)-1,3-Dimethyl-piperidin-4-yl)-7-(2-fluoro-3-methoxy-phenyl)-4-methyl-2,10-dihydro-9-oxa-1,2,4a-triaza-phenanthren-3-one]",–,< 250 nM,< 250 nM,–
"Cc1cc2c(cc1NC1(C)CNC1)N1C(=NNC(=O)C1C)CO2 (stereo not drawn) [Example 98, 4,7-Dimethyl-6-(3-methyl-azetidin-3-ylamino)-2,10-dihydro-9-oxa-1,2,4a-triaza-phenanthren-3-one trifluoroacetic acid]",1000 to 10000 nM,–,1000 to 10000 nM,–
"C[C@@H]1C(=O)NN=C2COc3cc(C(F)(F)F)c(NC4CNC4)cc3N21 (single isomer, unassigned) [Example 53-2, trifluoroacetic acid]",1000 to 10000 nM,< 250 nM,–,–
COc1ccc(-c2cc3c(cc2[C@@H]2CCN(C)C[C@@H]2C)N2C(=NNC(=O)[C@H]2C)CO3)c(F)c1 [Example 201],–,< 250 nM,–,< 250 nM
CC1C(=O)NN=C2COc3cc(-c4ccccc4F)c(N4CC5CCC4CN5)cc3N21 (stereo not drawn) [Example 229],1000 to 10000 nM,–,250 to 1000 nM,–
"C[C@@H]1C(=O)NN=C2COc3cc(C(F)(F)F)c(NC4(C)CNC4)cc3N21 (single isomer, unassigned) [Example 100-1, trifluoroacetic acid]",1000 to 10000 nM,< 250 nM,–,–
"C[C@H]1C(=O)NN=C2COc3cc(C(F)(F)F)c(NC4(C)CNC4)cc3N21 [Example 100-2, (S)-1-Methyl-9-((3-methylazetidin-3-yl)amino)-8-(trifluoromethyl)-3,5-dihydrobenzo[5,6][1,4]oxazino[3,4-c][1,2,4]triazin-2(1H)-one trifluoacetic acid salt]",250 to 1000 nM,250 to 1000 nM,–,–
"C[C@H]1C(=O)NN=C2COc3cc4ccn([C@]5(C)CCNC5)c4cc3N21 [Example 165, (S)-1-Methyl-10-((R)-3-methyl-pyrrolidin-3-yl)-3,5-dihydro-10H-6-oxa-3,4,10,11b-tetraaza-cyclopenta[b]phenanthren-2-one]",1000 to 10000 nM,–,250 to 1000 nM,–
"CC1C(=O)NN=C2COc3cc(C(F)(F)F)c(NC4(C)CNC4)cc3N21 (stereo not drawn) [Example 81, 4-Methyl-6-(3-methyl-azetidin-3-ylamino)-7-trifluoromethyl-2,10-dihydro-9-oxa-1,2,4a-triaza-phenanthren-3-one]",1000 to 10000 nM,250 to 1000 nM,–,–
Cc1ccc(-c2cc3c(cc2[C@@H]2CCN(C)C[C@@H]2C)N2C(=NNC(=O)[C@H]2C)CO3)c(F)c1 [Example 200],< 250 nM,< 250 nM,–,–
"CC1NCC1Nc1ccc2c(c1)N1C(=NNC(=O)C1C)CO2 (stereo not drawn) [Example 118, 4-Methyl-6-(2-methyl-azetidin-3-ylamino)-2,10-dihydro-9-oxa-1,2,4a-triaza-phenanthren-3-one trifluoroacetic acid]",1000 to 10000 nM,–,250 to 1000 nM,–
